{"source": "paper PMC2577671", "about": "“Evaluation of Dimebon in cellular model of Huntington's disease” (Molecular Neurodegeneration, 2008)", "key": {"[1]": {"target": "T1, Transporter, Dopamine (DAT) (Homo sapiens, UniProt Q01959)", "T1 construct": "gene SLC6A3", "T1 sequence (Q01959 whole entry)": "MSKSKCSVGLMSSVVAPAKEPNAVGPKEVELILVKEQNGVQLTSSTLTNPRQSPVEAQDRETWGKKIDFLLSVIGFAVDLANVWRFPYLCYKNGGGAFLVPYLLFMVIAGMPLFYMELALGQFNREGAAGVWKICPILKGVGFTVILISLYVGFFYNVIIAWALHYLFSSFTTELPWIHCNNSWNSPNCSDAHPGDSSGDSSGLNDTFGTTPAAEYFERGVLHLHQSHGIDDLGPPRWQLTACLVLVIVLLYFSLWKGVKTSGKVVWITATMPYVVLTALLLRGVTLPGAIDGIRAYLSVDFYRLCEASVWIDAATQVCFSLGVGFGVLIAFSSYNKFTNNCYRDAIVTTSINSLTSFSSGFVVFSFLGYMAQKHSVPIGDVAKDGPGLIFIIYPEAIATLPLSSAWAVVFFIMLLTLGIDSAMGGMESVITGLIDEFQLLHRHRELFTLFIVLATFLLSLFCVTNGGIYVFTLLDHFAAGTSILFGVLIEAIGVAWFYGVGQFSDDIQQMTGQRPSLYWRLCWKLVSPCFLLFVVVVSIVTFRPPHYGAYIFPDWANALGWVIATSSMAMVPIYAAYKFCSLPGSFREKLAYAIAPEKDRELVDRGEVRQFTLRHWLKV", "assay": "biochemical", "set-up": "MDS Pharma Lead Profiling screen, binding assays, per cent inhibition, duplicate", "protocol": "(§1) The activity of Dimebon against selected set of biochemical targets was performed by MDS Pharma Services . The Dimebon was provided to MDS Pharma as dry powder, dissolved in DMSO and tested in 10 μM concentrations. The standard Lead Profiling + CYP450 screen was performed according to MDS Pharma specifications with additional custom-chosen targets added to the screen as indicated. To further understand potential mechanisms responsible for clinical effects of Dimebon, we evaluated Dimebon against a set of selected biochemical targets. Dimebon evaluation was performed by MDS Pharma Services . The standard Lead Profiling + CYP450 screen was performed with additional custom-selected targets added to the screen. The results of the screen obtained at 10 μM of Dimebon are provided as Additional File 3. […] Low affinity (50–60% inhibition) interactions were also observed for CYP450, 2C19 receptor, voltage-gated L-type Ca^2+ channel, Dopamine D4.2 receptor, and Serotonin 5-HT1 receptor. […] Supplementary file 1750-1326-3-15-S3.pdf: Additional file 3 The results of Dimebon screening against a selected set of biochemical targets. The complete results obtained by MDS Pharma with a selected list of biochemical targets using 10 μM of Dimebon as a probe. The Cat numbers refer to the MDS Pharma Services assay specification. The receptors and species are listed. Dimebon was tested at 10 μM concentratio in duplicate. The % inhibition by Dimebon is shown numerically and graphically for each receptor. Significant targets (defined as % inhibition > 50%) are highlighted in yellow. Click here for file"}, "Adenosine A1": {"target": "T2, Adenosine A1 (Homo sapiens, UniProt P30542)", "T2 construct": "gene ADORA1", "T2 sequence (P30542 whole entry)": "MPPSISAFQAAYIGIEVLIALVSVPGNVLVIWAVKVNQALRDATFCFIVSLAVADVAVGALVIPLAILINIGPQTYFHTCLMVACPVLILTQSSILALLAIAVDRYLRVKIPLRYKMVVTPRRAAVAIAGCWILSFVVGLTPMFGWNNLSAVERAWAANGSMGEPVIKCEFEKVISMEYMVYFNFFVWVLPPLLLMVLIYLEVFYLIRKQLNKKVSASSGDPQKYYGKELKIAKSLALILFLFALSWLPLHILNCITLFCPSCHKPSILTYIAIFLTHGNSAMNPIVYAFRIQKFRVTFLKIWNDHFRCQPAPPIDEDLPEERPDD", "assay": "biochemical", "set-up": "MDS Pharma Lead Profiling screen, binding assays, per cent inhibition, duplicate", "protocol": "as §1"}, "Dopamine D2S receptor [2]": {"target": "T3, Dopamine D2S receptor (Homo sapiens, UniProt P14416)", "T3 construct": "gene DRD2; D2S", "assay": "biochemical", "set-up": "MDS Pharma Lead Profiling screen, binding assays, per cent inhibition, duplicate", "protocol": "as §1"}, "Muscarinic M3": {"target": "T4, Muscarinic M3 (Homo sapiens, UniProt P20309)", "T4 construct": "gene CHRM3", "T4 sequence (P20309 whole entry)": "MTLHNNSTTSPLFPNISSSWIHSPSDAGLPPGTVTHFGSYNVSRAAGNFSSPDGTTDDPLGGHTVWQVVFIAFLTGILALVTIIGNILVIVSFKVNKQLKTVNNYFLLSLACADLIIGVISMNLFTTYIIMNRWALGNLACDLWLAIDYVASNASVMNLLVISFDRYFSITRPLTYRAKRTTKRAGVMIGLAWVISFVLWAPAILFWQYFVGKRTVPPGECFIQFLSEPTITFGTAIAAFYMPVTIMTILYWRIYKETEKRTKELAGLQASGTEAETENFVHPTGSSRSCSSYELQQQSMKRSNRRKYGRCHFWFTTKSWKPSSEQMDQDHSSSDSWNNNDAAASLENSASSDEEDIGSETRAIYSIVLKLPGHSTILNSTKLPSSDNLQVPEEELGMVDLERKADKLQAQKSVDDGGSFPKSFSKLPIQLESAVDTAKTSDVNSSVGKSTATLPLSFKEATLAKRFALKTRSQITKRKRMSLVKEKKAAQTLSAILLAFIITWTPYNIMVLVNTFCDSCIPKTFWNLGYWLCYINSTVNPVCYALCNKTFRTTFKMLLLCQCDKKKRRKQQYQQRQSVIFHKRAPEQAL", "assay": "biochemical", "set-up": "MDS Pharma Lead Profiling screen, binding assays, per cent inhibition, duplicate", "protocol": "as §1"}, "Adenosine A3": {"target": "T5, Adenosine A3 (Homo sapiens, UniProt P0DMS8)", "T5 construct": "gene ADORA3", "T5 sequence (P0DMS8 whole entry)": "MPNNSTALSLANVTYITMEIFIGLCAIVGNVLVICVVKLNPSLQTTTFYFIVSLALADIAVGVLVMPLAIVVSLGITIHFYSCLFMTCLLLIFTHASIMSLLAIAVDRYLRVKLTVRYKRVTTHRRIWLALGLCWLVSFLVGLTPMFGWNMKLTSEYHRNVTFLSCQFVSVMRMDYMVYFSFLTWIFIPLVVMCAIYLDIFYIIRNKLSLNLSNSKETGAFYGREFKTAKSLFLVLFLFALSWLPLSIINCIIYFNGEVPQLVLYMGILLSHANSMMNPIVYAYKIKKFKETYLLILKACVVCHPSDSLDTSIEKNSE", "assay": "biochemical", "set-up": "MDS Pharma Lead Profiling screen, binding assays, per cent inhibition, duplicate", "protocol": "as §1"}, "Dopamine D1": {"target": "T6, Dopamine D1 (Homo sapiens, UniProt P21728)", "T6 construct": "gene DRD1", "T6 sequence (P21728 whole entry)": "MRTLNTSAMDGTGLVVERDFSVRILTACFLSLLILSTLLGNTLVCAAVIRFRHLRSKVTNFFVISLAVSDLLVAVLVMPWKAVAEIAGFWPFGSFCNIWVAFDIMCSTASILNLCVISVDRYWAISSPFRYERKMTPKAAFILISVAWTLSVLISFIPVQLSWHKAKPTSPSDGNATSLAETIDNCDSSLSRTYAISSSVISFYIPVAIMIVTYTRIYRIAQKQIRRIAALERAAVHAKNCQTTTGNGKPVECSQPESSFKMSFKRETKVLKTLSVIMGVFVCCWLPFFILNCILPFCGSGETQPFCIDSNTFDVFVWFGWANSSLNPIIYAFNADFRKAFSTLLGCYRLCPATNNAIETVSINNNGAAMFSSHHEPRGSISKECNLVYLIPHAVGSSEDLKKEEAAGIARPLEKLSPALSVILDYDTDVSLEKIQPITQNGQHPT", "assay": "biochemical", "set-up": "MDS Pharma Lead Profiling screen, binding assays, per cent inhibition, duplicate", "protocol": "as §1"}, "Muscarinic M1": {"target": "T7, Muscarinic M1 (Homo sapiens, UniProt P11229)", "T7 construct": "gene CHRM1", "assay": "biochemical", "set-up": "MDS Pharma Lead Profiling screen, binding assays, per cent inhibition, duplicate", "protocol": "as §1"}, "Bradykinin B2": {"target": "T8, Bradykinin B2 (Homo sapiens, UniProt P30411)", "T8 construct": "gene BDKRB2", "assay": "biochemical", "set-up": "MDS Pharma Lead Profiling screen, binding assays, per cent inhibition, duplicate", "protocol": "as §1"}, "[3]": {"target": "T9, Serotonin 5-HT5A receptor (Homo sapiens, UniProt P47898)", "T9 construct": "gene HTR5A", "T9 sequence (P47898 whole entry)": "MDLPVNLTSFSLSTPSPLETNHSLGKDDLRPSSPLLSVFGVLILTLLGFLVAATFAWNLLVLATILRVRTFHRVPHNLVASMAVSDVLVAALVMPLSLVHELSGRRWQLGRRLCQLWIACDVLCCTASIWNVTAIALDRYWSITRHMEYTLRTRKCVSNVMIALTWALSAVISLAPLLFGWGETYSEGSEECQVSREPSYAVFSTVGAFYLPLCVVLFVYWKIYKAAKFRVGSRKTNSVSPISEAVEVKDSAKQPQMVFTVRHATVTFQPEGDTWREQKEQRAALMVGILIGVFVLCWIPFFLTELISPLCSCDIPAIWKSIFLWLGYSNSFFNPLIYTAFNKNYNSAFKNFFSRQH", "assay": "biochemical", "set-up": "MDS Pharma Lead Profiling screen, binding assays, per cent inhibition, duplicate", "protocol": "as §1"}, "Histamine H1 receptor": {"target": "T10, Histamine H1 receptor (Homo sapiens, UniProt P35367)", "T10 construct": "gene HRH1", "T10 sequence (P35367 whole entry)": "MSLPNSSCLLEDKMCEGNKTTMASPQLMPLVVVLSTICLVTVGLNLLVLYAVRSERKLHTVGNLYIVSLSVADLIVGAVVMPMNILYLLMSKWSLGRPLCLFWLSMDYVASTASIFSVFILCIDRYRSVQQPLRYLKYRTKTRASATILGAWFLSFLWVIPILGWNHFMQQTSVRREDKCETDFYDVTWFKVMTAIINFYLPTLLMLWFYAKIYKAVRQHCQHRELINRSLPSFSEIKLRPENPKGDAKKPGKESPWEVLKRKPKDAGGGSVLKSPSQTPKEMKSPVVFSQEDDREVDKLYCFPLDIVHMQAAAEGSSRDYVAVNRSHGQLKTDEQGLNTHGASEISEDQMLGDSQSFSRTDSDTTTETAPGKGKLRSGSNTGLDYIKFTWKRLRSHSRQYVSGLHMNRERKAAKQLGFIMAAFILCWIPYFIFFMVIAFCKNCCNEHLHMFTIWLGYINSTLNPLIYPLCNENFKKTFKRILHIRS", "assay": "MDS Pharma Services binding screen at […]"}, "Serotonin 5-HT6 receptor": {"target": "T11, Serotonin 5-HT6 receptor (Homo sapiens, UniProt P50406)", "T11 construct": "gene HTR6", "assay": "MDS Pharma Services binding screen at […]"}, "Dopamine D2S receptor [4]": {"target": "T3, Dopamine D2S receptor", "assay": "MDS Pharma Services binding screen at […]"}, "[5]": {"target": "T12, Serotonin 5-HT2c receptor (Homo sapiens, UniProt P28335)", "T12 construct": "gene HTR2C", "assay": "MDS Pharma Services binding screen at […]"}, "[6]": {"target": "T13, Nicotinic Acetylcholine alpha1, Bungarotoxin (Homo sapiens, UniProt P02708)", "T13 construct": "gene CHRNA1", "T13 sequence (P02708 whole entry)": "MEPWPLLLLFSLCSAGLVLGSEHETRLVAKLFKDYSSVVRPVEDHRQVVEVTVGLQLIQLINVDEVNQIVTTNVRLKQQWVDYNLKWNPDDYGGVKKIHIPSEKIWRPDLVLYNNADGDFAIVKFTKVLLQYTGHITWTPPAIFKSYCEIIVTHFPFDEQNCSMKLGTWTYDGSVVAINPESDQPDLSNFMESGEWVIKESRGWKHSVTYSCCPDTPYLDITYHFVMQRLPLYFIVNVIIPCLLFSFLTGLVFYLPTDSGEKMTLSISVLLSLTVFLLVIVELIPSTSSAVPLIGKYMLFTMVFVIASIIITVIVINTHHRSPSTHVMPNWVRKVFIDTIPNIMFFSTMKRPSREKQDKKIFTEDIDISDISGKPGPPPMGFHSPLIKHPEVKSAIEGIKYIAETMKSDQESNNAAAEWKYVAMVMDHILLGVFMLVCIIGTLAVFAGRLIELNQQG", "assay": "biochemical", "set-up": "MDS Pharma Lead Profiling screen, binding assays, per cent inhibition, duplicate", "details": "read-out: % INHIBITION"}, "[7]": {"target": "T9, Serotonin 5-HT5A receptor", "assay": "MDS Pharma Services binding screen at […]"}, "Potassium Channel hERG": {"target": "T14, Potassium Channel hERG (Homo sapiens, UniProt Q12809)", "T14 construct": "gene KCNH2", "assay": "in vitro", "set-up": "MDS Pharma Lead Profiling screen, binding assays, per cent inhibition, duplicate", "protocol": "as §1, with “Dimebon was tested at 10 μM concentratio in duplicate. The % inhibition by Dimebon is shown numerically and graphically for each receptor. Significant targets (defined as % inhibition > 50%) are highlighted in yellow. Click here for file” left out"}, "α2A-Adrenergic receptor": {"target": "T15, α2A-Adrenergic receptor (Homo sapiens, UniProt P08913)", "T15 construct": "gene ADRA2A", "assay": "MDS Pharma Services binding screen at […]"}, "CYP450, 3A4": {"target": "T16, CYP450, 3A4 (Homo sapiens, UniProt P08684)", "T16 construct": "gene CYP3A4", "assay": "in vitro", "set-up": "MDS Pharma Lead Profiling + CYP450 screen, enzyme assays, per cent inhibition, duplicate", "protocol": "as §1"}, "CYP450, 2C9": {"target": "T17, CYP450, 2C9 (Homo sapiens, UniProt P11712)", "T17 construct": "gene CYP2C9", "T17 sequence (P11712 whole entry)": "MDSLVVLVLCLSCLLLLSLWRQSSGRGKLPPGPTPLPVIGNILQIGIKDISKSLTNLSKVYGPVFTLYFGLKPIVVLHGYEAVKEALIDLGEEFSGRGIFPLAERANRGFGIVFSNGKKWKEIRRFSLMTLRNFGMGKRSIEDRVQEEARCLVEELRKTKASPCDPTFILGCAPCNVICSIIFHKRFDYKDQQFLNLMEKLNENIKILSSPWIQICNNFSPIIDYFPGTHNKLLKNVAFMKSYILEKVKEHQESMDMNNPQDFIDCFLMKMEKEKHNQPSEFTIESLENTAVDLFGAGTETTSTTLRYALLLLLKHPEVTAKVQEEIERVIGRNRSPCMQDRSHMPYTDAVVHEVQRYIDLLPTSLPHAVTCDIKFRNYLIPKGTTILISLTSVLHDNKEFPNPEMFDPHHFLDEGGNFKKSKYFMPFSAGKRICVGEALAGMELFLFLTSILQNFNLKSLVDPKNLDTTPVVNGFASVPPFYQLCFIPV", "assay": "in vitro", "set-up": "MDS Pharma Lead Profiling + CYP450 screen, enzyme assays, per cent inhibition, duplicate", "protocol": "as §1"}, "CYP450, 1A2": {"target": "T18, CYP450, 1A2 (Homo sapiens, UniProt P05177)", "T18 construct": "gene CYP1A2", "assay": "in vitro", "set-up": "MDS Pharma Lead Profiling + CYP450 screen, enzyme assays, per cent inhibition, duplicate", "protocol": "as §1"}, "CYP450, 2D6": {"target": "T19, CYP450, 2D6 (Homo sapiens, UniProt P10635)", "T19 construct": "gene CYP2D6", "T19 sequence (P10635 whole entry)": "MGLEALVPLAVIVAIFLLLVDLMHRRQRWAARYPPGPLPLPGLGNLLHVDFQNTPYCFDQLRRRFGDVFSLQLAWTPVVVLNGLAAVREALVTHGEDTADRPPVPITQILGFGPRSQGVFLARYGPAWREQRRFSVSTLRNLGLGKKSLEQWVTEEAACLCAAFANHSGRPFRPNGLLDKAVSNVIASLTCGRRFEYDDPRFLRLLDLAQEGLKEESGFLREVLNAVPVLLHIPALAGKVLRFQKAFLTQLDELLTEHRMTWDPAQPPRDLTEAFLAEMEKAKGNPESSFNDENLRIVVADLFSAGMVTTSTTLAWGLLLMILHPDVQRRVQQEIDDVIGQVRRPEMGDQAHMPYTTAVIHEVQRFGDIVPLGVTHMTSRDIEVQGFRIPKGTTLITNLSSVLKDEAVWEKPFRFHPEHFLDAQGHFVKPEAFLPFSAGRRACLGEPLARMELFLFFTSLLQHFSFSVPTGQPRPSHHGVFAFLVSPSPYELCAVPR", "assay": "in vitro", "set-up": "MDS Pharma Lead Profiling + CYP450 screen, enzyme assays, per cent inhibition, duplicate", "protocol": "as §1"}, "CYP450, 2C19": {"target": "T20, CYP450, 2C19 (Homo sapiens, UniProt P33261)", "T20 construct": "gene CYP2C19", "assay": "in vitro", "set-up": "MDS Pharma Lead Profiling + CYP450 screen, enzyme assays, per cent inhibition, duplicate", "protocol": "as §1"}}, "data": [{"smiles": "Cc1ccc2c(c1)c1c(n2CCc2ccc(C)nc2)CCN(C)C1", "note": "[Dimebon, 2,3,4,5-Tetrahydro-2,8-dimethyl-5-(2-(6-methyl-3-pyridyl)ethyl)-1H-pyrido(4,3-b)indole]", "values": [{"measurement": "inhibition at 10 µM", "setting": "[1]", "result": 13, "unit": "%"}, {"measurement": "inhibition at 10 µM", "setting": "Adenosine A1", "result": 0, "unit": "%"}, {"measurement": "inhibition at 10 µM", "setting": "Dopamine D2S receptor [2]", "result": 83, "unit": "%"}, {"measurement": "inhibition at 10 µM", "setting": "Muscarinic M3", "result": 7, "unit": "%"}, {"measurement": "inhibition at 10 µM", "setting": "Adenosine A3", "result": 6, "unit": "%"}, {"measurement": "inhibition at 10 µM", "setting": "Dopamine D1", "result": 70, "unit": "%"}, {"measurement": "inhibition at 10 µM", "setting": "Muscarinic M1", "result": 9, "unit": "%"}, {"measurement": "inhibition at 10 µM", "setting": "Bradykinin B2", "result": -2, "unit": "%"}, {"measurement": "inhibition at 10 µM", "setting": "[3]", "result": 99, "unit": "%"}, {"measurement": "inhibition at 10 µM", "setting": "Histamine H1 receptor", "result": "> 90", "unit": "%"}, {"measurement": "inhibition at 10 µM", "setting": "Serotonin 5-HT6 receptor", "result": "> 90", "unit": "%"}, {"measurement": "inhibition at 10 µM", "setting": "Dopamine D2S receptor [4]", "result": "70 to 80", "unit": "%"}, {"measurement": "inhibition at 10 µM", "setting": "[5]", "result": "> 90", "unit": "%"}, {"measurement": "inhibition at 10 µM", "setting": "[6]", "result": 1, "unit": "%"}, {"measurement": "inhibition at 10 µM", "setting": "[7]", "result": "> 90", "unit": "%"}, {"measurement": "inhibition at 10 µM", "setting": "Potassium Channel hERG", "result": 45, "unit": "%"}, {"measurement": "inhibition at 10 µM", "setting": "α2A-Adrenergic receptor", "result": "> 90", "unit": "%"}, {"measurement": "inhibition at 10 µM", "setting": "CYP450, 3A4", "result": 22, "unit": "%"}, {"measurement": "inhibition at 10 µM", "setting": "CYP450, 2C9", "result": 2, "unit": "%"}, {"measurement": "inhibition at 10 µM", "setting": "CYP450, 1A2", "result": 5, "unit": "%"}, {"measurement": "inhibition at 10 µM", "setting": "CYP450, 2D6", "result": 16, "unit": "%"}, {"measurement": "inhibition at 10 µM", "setting": "CYP450, 2C19", "result": 55, "unit": "%"}]}]}
